Results: patent publication US20260226049A1, “NITROGEN-CONTAINING HETEROCYCLIC COMPOUND, PREPARATION METHOD THEREFOR, AND USE THEREOF” (BIVISION PHARMACEUTICALS, INC, priority 2023, published 2026)

How the values were obtained:
FAP protein = target: T1, FAP protein (Homo sapiens, UniProt Q12884); assay: Biacore test of ligand binding to FAP protein; details: FAP protein on SA chip, 15° C., 1:1 binding model
T1 construct: purchased Sinobiological
T1 sequence (Q12884 1-760): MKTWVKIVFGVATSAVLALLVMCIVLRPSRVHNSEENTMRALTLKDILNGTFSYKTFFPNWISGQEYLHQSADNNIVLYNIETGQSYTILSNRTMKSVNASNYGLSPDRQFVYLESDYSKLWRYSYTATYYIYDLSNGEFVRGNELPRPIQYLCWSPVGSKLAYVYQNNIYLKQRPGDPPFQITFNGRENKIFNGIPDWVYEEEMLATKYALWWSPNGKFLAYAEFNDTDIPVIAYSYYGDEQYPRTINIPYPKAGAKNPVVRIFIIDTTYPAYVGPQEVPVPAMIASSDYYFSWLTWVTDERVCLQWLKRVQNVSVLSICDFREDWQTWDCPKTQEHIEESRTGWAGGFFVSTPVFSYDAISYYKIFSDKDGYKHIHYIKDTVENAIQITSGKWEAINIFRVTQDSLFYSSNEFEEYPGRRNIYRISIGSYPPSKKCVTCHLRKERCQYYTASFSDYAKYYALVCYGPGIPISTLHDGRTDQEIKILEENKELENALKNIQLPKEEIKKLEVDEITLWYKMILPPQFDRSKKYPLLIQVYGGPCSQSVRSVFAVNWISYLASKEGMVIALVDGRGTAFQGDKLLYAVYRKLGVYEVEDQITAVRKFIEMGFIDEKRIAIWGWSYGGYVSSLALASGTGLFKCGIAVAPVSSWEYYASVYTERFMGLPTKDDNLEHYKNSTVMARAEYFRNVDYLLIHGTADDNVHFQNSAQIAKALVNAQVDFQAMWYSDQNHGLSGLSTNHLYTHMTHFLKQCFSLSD
Protocol: The Biacore 8K (Cytiva) instrument was used to detect ligand binding of the FAP protein (Sinobiological). The FAP protein was captured on the SA chip. Before ligand immobilization (flow paths 1 and 2, flow rate of 10 μL/min), the FAP protein (10 μg/mL, flow rate of 5 μL/min, injection time of 600 s) was immobilized on flow path 2 using running buffer, and the sensor surface was conditioned with three consecutive injections of 1 M NaCl in 50 mM NaOH. After each ligand injection, additional washing was carried out with isopropanol in 1 M NaCl and 50 mM NaOH (flow paths 1 and 2, flow rate of 10 μL/min, injection time of 60 s).
The test compounds were dissolved in 100% dimethyl sulfoxide and diluted to 10 mM, then further diluted in the assay buffer (PBS, pH 7.4, 1 mM TCEP ([…]), 0.05% P20, 2% dimethyl sulfoxide) to appropriate maximum concentrations. The analyte was run under the following conditions: analysis temperature=15° C., analysis step=all set to LMW kinetics; cycle type=single cycle (90 s contact time, 1800 s dissociation time, 30 μL/min flow rate, flow channels 1, 2); flow channel detection=2-1). Data evaluation was performed using Biacore Insight Evaluation Software, and the data were fitted to a 1:1 binding model.
The Biacore results are shown in Table 1: pKD=−Log KD, where KD is the binding affinity of the compound to the FAP protein as measured by Biacore. The binding affinity is expressed by KD (M)=Kd(1/s)/Ka(1/Ms). Where A: pKD>8, B: 7<pKD<8, C: 6<pKD<7, D: pKD<6.

[1] = target: T2, recombinant human prolyl oligopeptidase (PREP) (Homo sapiens, UniProt P48147); assay: Selective assay, protease inhibition (PREP); assay type: biochemical; details: substrate Z-Gly-Pro-AMC
T2 sequence (P48147 1-710): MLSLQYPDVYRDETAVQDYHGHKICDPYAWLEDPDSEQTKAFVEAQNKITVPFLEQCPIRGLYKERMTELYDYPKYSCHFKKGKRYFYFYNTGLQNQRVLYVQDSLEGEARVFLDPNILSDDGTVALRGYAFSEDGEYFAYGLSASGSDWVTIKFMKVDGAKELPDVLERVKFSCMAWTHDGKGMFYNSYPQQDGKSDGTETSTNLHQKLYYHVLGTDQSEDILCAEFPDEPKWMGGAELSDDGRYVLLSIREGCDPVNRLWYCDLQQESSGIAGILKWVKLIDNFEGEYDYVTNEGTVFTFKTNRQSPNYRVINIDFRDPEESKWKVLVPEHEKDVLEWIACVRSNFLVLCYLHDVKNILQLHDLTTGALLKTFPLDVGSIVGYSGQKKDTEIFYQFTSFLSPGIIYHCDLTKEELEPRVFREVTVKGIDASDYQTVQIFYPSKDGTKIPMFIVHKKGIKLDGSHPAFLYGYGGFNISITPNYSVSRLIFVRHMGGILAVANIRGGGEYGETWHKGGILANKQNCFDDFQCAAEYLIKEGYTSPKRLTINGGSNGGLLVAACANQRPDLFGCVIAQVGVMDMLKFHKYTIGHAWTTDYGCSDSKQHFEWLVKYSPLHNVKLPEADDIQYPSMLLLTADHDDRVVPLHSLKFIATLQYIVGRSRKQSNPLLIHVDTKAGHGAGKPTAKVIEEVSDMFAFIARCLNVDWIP
Protocol: The specificity of the synthesized compounds against recombinant human dipeptidyl peptidase IV (DPPIV), fibroblast activation protein (FAP), or prolyl oligopeptidase (PREP) was expressed by their half-maximal inhibitory concentration (IC50) against the proteases.
1) The synthesized compound was dissolved in DMSO to a final concentration of 100 mM.
c) For PREP assay: The test compound was diluted to a 1 mM solution using a 140 mM NaCl buffer at pH 8.0.
2) The prepared 1 mM test compound solution was serially diluted (1:10) into a row of a 96-well plate using the corresponding buffer mentioned above.
3) The substrate was prepared as a DMSO stock solution (FAP and PREP: 2.5 mM Z-Gly-Pro-AMC (VWR, Cat. No. I-1145.0050BA) in DMSO; DPPIV: 100 mM Gly-Pro-AMC (VWR, Cat. No. 100042-646) in DMSO), and subsequently the substrate stock solution was diluted 20-fold using the corresponding buffer mentioned above.
4) The enzyme was diluted into the appropriate assay buffer. The final concentrations of DPPIV, FAP, and PREP were […], respectively. To each required well in columns 2-10, 180 μL was added separately. Column 1 (A, B, C) was prepared with 200 μL of the appropriate assay buffer as a control. Column 1 (D, E, F, G, H) was prepared using 20 μL of appropriate assay buffer and 180 μL of enzyme as an inhibitor-free control. […]
7) Fluorescence was measured at λex: 380, λem: 460. […]

- Kd (FAP protein): < 10 nM
- IC50 [1]: > 1000 nM
Compound: N#C[C@@H]1CC(F)(F)CN1C(=O)CNC(=O)c1cccc2c1CCN(C(=O)CCC(=O)NCCNC(=O)CCC(C(=O)O)N1CCN(CC(=O)O)CCN(CC(=O)O)CCN(CC(=O)O)CC1)C2 (some centres unmarked) [JHH5]
